Measured values published in ChEMBL document CHEMBL3621065, “Structure-activity relationship studies of SETD8 inhibitors” (Medchemcomm, 2014).
pIC50: −log10 of the molar value.

Target: T1, N-lysine methyltransferase KMT5A (Homo sapiens, UniProt Q9NQR1)
T1 sequence (Q9NQR1 whole entry): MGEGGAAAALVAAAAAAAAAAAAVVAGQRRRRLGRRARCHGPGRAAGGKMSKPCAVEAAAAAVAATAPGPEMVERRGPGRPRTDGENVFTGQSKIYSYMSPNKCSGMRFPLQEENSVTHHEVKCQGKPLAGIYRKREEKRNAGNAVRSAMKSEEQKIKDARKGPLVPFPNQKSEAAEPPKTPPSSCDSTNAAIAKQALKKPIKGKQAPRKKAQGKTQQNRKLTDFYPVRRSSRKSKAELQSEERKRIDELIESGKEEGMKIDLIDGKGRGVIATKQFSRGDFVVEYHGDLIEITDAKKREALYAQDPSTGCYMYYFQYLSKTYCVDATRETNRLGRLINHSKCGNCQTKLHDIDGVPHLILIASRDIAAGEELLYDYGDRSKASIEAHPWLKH
Test: Inhibition of human SETD8 catalytic domain expressed in Escherichia coli assessed as reduction in transfer of tritiated methyl group from [3H]SAM to biotinylated H4 (1 to 24) peptide substrate by scintillation proximity assay

pIC50, < 3.60:
COc1cc2nc(Nc3ccc([N+](=O)[O-])cc3)nc(NCCCCCN3CCCC3)c2cc1OC, COc1cc2nc(-c3ccc(F)cc3)nc(NCCCCCN3CCCC3)c2cc1OC, COc1cc2nc(-c3ccccc3)nc(NCCCCCN3CCCC3)c2cc1OC, COc1ccc(N(C)c2nc(NCCCCCN3CCCC3)c3cc(OC)c(OC)cc3n2)cc1, COc1ccc(Nc2nc(NCCCCCN3CCCC3)c3cc(OC)c(OC)cc3n2)cc1, COc1cc2nc(N3CCCC3)nc(N[C@H]3CC[C@H](N)CC3)c2cc1OC, COc1cc2nc(N(C)CCCCCN3CCCC3)nc(NCCCCCN3CCCC3)c2cc1OC, COc1cc2nc(N(C)CCN3CCCC3)nc(NCCCCCN3CCCC3)c2cc1OC, COc1cc2nc(-c3ccc(C(F)(F)F)cc3)nc(NCCCCCN3CCCC3)c2cc1OC, COc1cc2nc(N(C)c3ccccc3)nc(NCCCCCN3CCCC3)c2cc1OC, COc1cc2nc(N3CCCC3)nc(N[C@H]3CC[C@H](CN)CC3)c2cc1OC, COc1ccc(-c2nc(NCCCCCN3CCCC3)c3cc(OC)c(OC)cc3n2)cc1, COc1cc2nc(N(C)c3ccc([N+](=O)[O-])cc3)nc(NCCCCCN3CCCC3)c2cc1OC, COc1cc2nc(N3CCCC3)nc(NCC(=O)NCCN3CCN(C)CC3)c2cc1OC, COc1cc2nc(N3CCCC3)nc(NCC(=O)NCCN3CCCC3)c2cc1OC, COc1cc2nc(N(C)CCCN3CCCC3)nc(NCCCCCN3CCCC3)c2cc1OC, COc1cc2nc(N3CCCC3)nc(NCC(=O)NCCN3CCNCC3)c2cc1OC, COc1cc2nc(N(C)CCCCN3CCCC3)nc(NCCCCCN3CCCC3)c2cc1OC, c1ccc2c(NCCCCCN3CCCC3)nc(N3CCCC3)nc2c1, COc1cc2nc(Nc3ccc(C(F)(F)F)cc3)nc(NCCCCCN3CCCC3)c2cc1OC, COc1cc2nc(Nc3ccccc3)nc(NCCCCCN3CCCC3)c2cc1OC
